Patent publication US20250382631A1, “PROTAC-CID SYSTEMS FOR USE IN MULTIPLEX GENE REGULATION” (William Marsh Rice University, priority 2022, published 2025)

Legend:
[1] = tested on: luciferase expression in the liver of FVB mice injected with Virus a and Virus b; assay: In vivo PROTAC-CID gene activation via AAV, IVIS bioluminescence imaging
Procedure: AAV production and Mouse for in vivo delivery. […] FVB mice were purchased from the Jackson Laboratory.
IVIS imaging system and quantification. Luciferase […] intensity was measured by the IVIS imaging system (PerkinElmer). Mice were anesthetized with a mixture of isoflurane and oxygen. and then intraperitoneally (i.p.) injected with D-luciferin (15 mg/ml, GoldBio no. LUCNA-100). 5 mins after the D-luciferin injection, mice were imaged with IVIS imaging system. Quantitative analysis of imaging signals (luminescence counts) was processed by Living Imaging software (PerkinElmer).

[2] = tested on: three different genomic sites in HEK293T cells; assay: Inducible C-to-T base editing by A3G5.13 (Sanger sequencing, EditR); format: cell-based, human; details: CBE A3G5.13 with dTAG-13 PROTAC-CID, 100 nM dTAG-13, 3 days, across three genomic sites, FIG. 3C
Procedure: Base editing measurement. Before transfection, HEK293T cells were plated into 96 well plates (Corning no. 3598) with 20% confluency. 0.5 μL Lipofectamine 2000 (Life Technology no. 11661089) was mixed with 25 μL DMEM for 5 mins incubation. 80 ng to 210 ng Plasmids (See Table 1 for plasmid dosage used in each condition) were then mixed with 25 μL DMEM and added into the Lipofectamine 2000 and DMEM mixture for 20 min incubation at the room temperature. Mixture was added into cells gently. After 12 h, supernatants were changed with fresh 10% FBS (Thermo Fisher Scientific no. 10437028) DMEM medium (Thermo Fisher Scientific no. 10569044), Puromycin (10 μg/mL Thermo Fisher Scientific no. A1113803) and supplied with 100 nM dTAG-13 (TOCRIS no. 6605/5) or DMSO (Sigma, no. D8418). After 3 days, cell medium was removed and cells were treated with 100 μL lysis buffer (10 mM tris-HCl (pH=7.5), 0.05% SDS, and proteinase K (25 μg/mL, Thermo Fisher Scientific no. 01169965)) followed by 37° C. 1 h, 58° C. 30 min and inactivated at 95° C. for 20 min. The cell lysis was amplified by 2×Phanta Max Master Mix (Vazyme no. p515) following the program: 95° C. 3 min, 95° C. 15s and 58° C. 15s with 72° C. for 35 cycles, and 72° C. 5 min. The editing efficiency was measured by Sanger sequencing and analyzed by EditR (https://moriaritylab.shinyapps.io/editr_v10/) (Kluesner et al., 2018).

[3] = biological target: wild-type FKBP12 (Homo sapiens, UniProt P62942); details: refs (32, 36); cited from earlier work
Chain of wild-type FKBP12 (P62942 whole entry, species assumed): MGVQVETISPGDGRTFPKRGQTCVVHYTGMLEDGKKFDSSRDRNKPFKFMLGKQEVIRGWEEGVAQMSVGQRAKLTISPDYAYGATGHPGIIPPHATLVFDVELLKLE

SMILES	increase of the luciferase expression in the liver compared with the group without MZ1 ([1]; 10 mg/kg MZ1 intraperitoneally, 25 days after AAV, imaging 6 h post-MZ1, FIG. 4E) [fold]	Fluc expression after second MZ1 injection ([1]; second injection ten days after the first, 50 mg/kg i.p., FIGS. 4G and 4H)	C-to-T editing [2]	degradation of wild-type FKBP12 [3]
Cc1ncsc1-c1ccc(CNC(=O)[C@@H]2C[C@@H](O)CN2C(=O)[C@@H](NC(=O)COCCOCCOCCNC(=O)C[C@@H]2N=C(c3ccc(Cl)cc3)c3c(sc(C)c3C)-n3c(C)nnc32)C(C)(C)C)cc1 [MZ1]	~7	elevated expression of Fluc with a comparable gene activation level as the first administration		
CC[C@H](C(=O)N1CCCC[C@H]1C(=O)O[C@H](CCc1ccc(OC)c(OC)c1)c1ccccc1OCC(=O)NCCCCCCOc1cccc2c1C(=O)N(C1CCC(=O)NC1=O)C2=O)c1cc(OC)c(OC)c(OC)c1 (stereo partly shown) [dTAG-13]			30-50%	do not degrade wild-type FKBP12
